Laboratory results reported in paper PMC9763582, “Analyzing the postulated inhibitory effect of Manumycin A on farnesyltransferase” (Frontiers in Chemistry, 2022).

Columns and labels:
[1] = molecular target: T1, C. elegans farnesyltransferase (ceFTase) (Caenorhabditis elegans, UniProt O44501+Q19752); experiment: continuous fluorescence assay with Dansyl-GCVLS and FPP, […]°C; Ki calculated from IC50 […] (Cheng-Prusoff); type: biochemical
T1 construct: gene fntb-1; coding regions of FTα (NM_001392242.1) and FTβ (NM_001392654.1), N-terminal His-tag on β-subunit; with farnesyltransferase α-subunit (ceFNTA)
T1 sequence (Q19752 1-401): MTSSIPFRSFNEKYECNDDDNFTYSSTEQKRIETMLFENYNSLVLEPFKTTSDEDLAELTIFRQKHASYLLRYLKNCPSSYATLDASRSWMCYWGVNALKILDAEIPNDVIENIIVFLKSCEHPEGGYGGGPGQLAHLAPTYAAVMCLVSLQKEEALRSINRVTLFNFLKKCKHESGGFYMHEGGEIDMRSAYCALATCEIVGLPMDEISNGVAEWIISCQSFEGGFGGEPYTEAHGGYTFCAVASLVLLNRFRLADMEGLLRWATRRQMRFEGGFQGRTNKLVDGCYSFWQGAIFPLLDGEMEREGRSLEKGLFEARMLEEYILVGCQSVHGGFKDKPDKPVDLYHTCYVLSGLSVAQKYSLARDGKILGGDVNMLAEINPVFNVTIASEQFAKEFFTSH
T1 sequence (O44501 1-328): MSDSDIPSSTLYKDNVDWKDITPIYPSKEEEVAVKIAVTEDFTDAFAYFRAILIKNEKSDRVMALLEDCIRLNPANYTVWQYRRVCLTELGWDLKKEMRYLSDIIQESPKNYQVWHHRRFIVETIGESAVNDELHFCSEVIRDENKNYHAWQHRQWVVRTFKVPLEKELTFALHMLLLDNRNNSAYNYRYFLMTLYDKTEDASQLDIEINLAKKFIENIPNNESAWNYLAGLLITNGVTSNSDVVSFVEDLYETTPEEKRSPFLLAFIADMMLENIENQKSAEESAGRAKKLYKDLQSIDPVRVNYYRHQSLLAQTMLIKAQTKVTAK

[2] = molecular target: T2, human farnesyltransferase (hFTase) (Homo sapiens, UniProt P49354+P49356); experiment: as above; type: biochemical
T2 construct: gene FNTB; IMAC purified FTase, FTα/FTβ heterodimer, His-tagged β-subunit; with farnesyltransferase α-subunit (FNTA)

purified protein = substrate: CC(C)=CCC/C(C)=C/CC/C(C)=C/CO[P@@](=O)(O)OP(=O)(O)O; experiment: purified protein; details: Zn2+ ([…] ZnCl2 in assay)

In the case of `CCCC[C@@H](C)/C=C(C)/C=C(\C)C(=O)NC1=C[C@@](O)(/C=C/C=C/C=C/C(=O)NC2=C(O)CCC2=O)[C@@H]2O[C@@H]2C1=O` [Manumycin A], the Ki [1] is reported as 3.16 µM and the Ki [2] is reported as 4.4 µM.

B1: C. elegans farnesyltransferase (ceFTase) (Caenorhabditis elegans) (protein)
chain 1: T1 sequence (Q19752 1-401)
chain 2: T1 sequence (O44501 1-328)
With B1 the Km (purified protein) was 1.3 µM.
